Laboratory results reported in BindingDB's records for doi:10.1073/pnas.0509591102 (Mcgill University, 2005).

Key:
[1] = molecular target: Neuronal acetylcholine receptor subunit alpha-4 (Homo sapiens, UniProt P43681)
[2] = molecular target: Muscarinic acetylcholine receptor M2 (Homo sapiens, UniProt P08172)
[3] = molecular target: Muscarinic acetylcholine receptor M5 (Homo sapiens, UniProt P08912)
[4] = molecular target: Cannabinoid receptor 1 (Rattus norvegicus, UniProt P20272)
[5] = molecular target: D(4) dopamine receptor (Homo sapiens, UniProt P21917)
[6] = molecular target: Neuronal acetylcholine receptor subunit alpha-3 (Homo sapiens, UniProt P32297)
[7] = molecular target: Muscarinic acetylcholine receptor M3 (Homo sapiens, UniProt P20309)
[8] = molecular target: 5-hydroxytryptamine receptor 1E (Homo sapiens, UniProt P28566)
[9] = molecular target: Histamine H1 receptor (Homo sapiens, UniProt P35367)
[10] = molecular target: Beta-1 adrenergic receptor (Rattus norvegicus, UniProt P18090)
[11] = molecular target: Mu-type opioid receptor (Homo sapiens, UniProt P35372)
[12] = molecular target: 5-hydroxytryptamine receptor 3A (Homo sapiens, UniProt P46098)
[13] = molecular target: Alpha-1B adrenergic receptor (Homo sapiens, UniProt P35368)
[14] = molecular target: Histamine H2 receptor (Homo sapiens, UniProt P25021)
[15] = molecular target: Cannabinoid receptor 2 (Homo sapiens, UniProt P34972)
[16] = molecular target: 5-hydroxytryptamine receptor 1A (Homo sapiens, UniProt P08908)
[17] = molecular target: AP-2 complex subunit sigma (Rattus norvegicus, UniProt P62744)
[18] = molecular target: D(1A) dopamine receptor (Homo sapiens, UniProt P21728)
[19] = molecular target: Potassium voltage-gated channel subfamily H member 2 (Homo sapiens, UniProt Q12809)
[20] = molecular target: D(2) dopamine receptor (Homo sapiens, UniProt P14416)
[21] = molecular target: Alpha-2C adrenergic receptor (Homo sapiens, UniProt P18825)
[22] = molecular target: 5-hydroxytryptamine receptor 1D (Homo sapiens, UniProt P28221)
[23] = molecular target: 5-hydroxytryptamine receptor 2C (Rattus norvegicus, UniProt P08909)
[24] = molecular target: D(3) dopamine receptor (Rattus norvegicus, UniProt P19020)
[25] = molecular target: D(1B) dopamine receptor (Homo sapiens, UniProt P21918)
[26] = molecular target: Alpha-2A adrenergic receptor (Homo sapiens, UniProt P08913)
[27] = molecular target: 5-hydroxytryptamine receptor 2A (Homo sapiens, UniProt P28223)
[28] = molecular target: Sigma non-opioid intracellular receptor 1 (Rattus norvegicus, UniProt Q9R0C9)
[29] = molecular target: 5-hydroxytryptamine receptor 7 (Homo sapiens, UniProt P34969)
[30] = molecular target: 5-hydroxytryptamine receptor 6 (Homo sapiens, UniProt P50406)
[31] = molecular target: Kappa-type opioid receptor (Homo sapiens, UniProt P41145)
[32] = molecular target: Beta-2 adrenergic receptor (Rattus norvegicus, UniProt P10608)
[33] = molecular target: Muscarinic acetylcholine receptor M4 (Homo sapiens, UniProt P08173)
[34] = molecular target: Alpha-2B adrenergic receptor (Homo sapiens, UniProt P18089)
[35] = molecular target: Neuronal acetylcholine receptor subunit alpha-2 (Homo sapiens, UniProt Q15822)
[36] = molecular target: 5-hydroxytryptamine receptor 1B (Homo sapiens, UniProt P28222)
[37] = molecular target: ATP-dependent translocase ABCB1 (Homo sapiens, UniProt P08183)
[38] = molecular target: Muscarinic acetylcholine receptor M1 (Homo sapiens, UniProt P11229)
[39] = molecular target: Sodium-dependent noradrenaline transporter (Homo sapiens, UniProt P23975)
[40] = molecular target: Alpha-1A adrenergic receptor (Homo sapiens, UniProt P35348)

Measured: Ki

5-hydroxytryptamine receptor 1D, sequence (P28221 whole entry): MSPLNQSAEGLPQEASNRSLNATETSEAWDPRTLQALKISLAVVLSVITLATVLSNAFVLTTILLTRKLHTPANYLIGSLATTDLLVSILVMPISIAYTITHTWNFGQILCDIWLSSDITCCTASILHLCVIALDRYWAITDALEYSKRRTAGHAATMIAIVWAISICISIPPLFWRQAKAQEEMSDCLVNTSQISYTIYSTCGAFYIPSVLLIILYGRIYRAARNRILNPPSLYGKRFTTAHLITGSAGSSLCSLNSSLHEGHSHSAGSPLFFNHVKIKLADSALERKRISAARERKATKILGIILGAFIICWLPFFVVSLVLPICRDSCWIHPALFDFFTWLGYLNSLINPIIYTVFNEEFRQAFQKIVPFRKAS
Neuronal acetylcholine receptor subunit alpha-4, sequence (P43681 whole entry): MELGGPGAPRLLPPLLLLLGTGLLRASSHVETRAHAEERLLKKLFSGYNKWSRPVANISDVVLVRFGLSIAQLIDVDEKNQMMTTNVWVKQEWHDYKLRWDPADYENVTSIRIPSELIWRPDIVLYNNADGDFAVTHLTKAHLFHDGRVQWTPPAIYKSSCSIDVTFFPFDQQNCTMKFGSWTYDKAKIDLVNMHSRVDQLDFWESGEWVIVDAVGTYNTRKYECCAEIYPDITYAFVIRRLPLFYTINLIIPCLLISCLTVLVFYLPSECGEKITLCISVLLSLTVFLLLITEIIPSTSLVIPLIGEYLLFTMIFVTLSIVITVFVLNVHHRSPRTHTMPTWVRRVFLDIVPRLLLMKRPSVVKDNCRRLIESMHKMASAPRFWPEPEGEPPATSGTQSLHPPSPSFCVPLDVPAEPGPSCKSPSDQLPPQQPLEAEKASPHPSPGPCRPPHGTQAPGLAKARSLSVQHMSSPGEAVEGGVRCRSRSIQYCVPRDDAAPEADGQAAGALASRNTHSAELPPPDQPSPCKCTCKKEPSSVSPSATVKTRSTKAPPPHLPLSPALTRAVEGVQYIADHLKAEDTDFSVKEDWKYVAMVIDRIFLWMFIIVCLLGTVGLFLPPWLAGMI
5-hydroxytryptamine receptor 2C, sequence (P08909 whole entry): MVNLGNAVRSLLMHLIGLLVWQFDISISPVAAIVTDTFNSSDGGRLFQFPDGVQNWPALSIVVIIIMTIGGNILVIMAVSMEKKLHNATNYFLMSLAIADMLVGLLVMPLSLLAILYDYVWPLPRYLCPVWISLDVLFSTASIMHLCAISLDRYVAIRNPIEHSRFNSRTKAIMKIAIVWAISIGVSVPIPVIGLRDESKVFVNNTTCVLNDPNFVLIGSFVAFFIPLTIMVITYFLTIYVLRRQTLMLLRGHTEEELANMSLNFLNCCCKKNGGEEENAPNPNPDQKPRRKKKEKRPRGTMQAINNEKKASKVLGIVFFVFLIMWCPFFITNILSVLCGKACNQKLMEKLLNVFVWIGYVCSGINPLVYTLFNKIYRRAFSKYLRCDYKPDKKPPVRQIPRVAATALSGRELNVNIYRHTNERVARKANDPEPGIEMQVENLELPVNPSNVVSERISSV
AP-2 complex subunit sigma, sequence (P62744 whole entry, looked up, one chain of several): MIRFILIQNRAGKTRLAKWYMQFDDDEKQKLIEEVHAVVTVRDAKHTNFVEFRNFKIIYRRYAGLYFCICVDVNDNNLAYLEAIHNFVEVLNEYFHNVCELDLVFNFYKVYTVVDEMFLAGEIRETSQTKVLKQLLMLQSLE
D(1B) dopamine receptor, sequence (P21918 whole entry): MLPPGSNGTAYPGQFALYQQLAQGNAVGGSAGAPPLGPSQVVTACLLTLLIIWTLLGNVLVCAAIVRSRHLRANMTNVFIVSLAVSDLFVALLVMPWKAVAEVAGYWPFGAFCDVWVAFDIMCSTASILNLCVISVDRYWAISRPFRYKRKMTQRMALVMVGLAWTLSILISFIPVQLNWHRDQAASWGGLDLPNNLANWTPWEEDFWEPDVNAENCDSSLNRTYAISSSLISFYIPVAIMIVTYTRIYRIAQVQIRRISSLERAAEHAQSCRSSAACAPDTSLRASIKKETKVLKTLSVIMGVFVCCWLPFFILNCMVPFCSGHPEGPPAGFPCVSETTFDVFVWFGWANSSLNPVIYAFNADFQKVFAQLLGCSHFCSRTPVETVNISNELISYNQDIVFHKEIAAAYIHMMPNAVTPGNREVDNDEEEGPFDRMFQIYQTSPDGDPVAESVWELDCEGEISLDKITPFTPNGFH
Neuronal acetylcholine receptor subunit alpha-2, sequence (Q15822 whole entry): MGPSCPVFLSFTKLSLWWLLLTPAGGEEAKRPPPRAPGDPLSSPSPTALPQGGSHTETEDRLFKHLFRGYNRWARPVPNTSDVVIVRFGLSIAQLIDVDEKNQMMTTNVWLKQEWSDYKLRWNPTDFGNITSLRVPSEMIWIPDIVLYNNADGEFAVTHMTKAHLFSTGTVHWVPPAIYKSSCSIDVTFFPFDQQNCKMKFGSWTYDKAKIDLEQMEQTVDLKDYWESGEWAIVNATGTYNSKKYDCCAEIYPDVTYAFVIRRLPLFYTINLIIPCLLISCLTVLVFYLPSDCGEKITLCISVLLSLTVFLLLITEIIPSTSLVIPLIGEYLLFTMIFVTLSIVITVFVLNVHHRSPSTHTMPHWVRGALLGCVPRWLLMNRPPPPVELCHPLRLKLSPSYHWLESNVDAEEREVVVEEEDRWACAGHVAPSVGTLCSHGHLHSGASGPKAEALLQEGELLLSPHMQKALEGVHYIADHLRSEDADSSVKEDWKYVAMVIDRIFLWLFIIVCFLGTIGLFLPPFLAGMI
Muscarinic acetylcholine receptor M4, sequence (P08173 whole entry): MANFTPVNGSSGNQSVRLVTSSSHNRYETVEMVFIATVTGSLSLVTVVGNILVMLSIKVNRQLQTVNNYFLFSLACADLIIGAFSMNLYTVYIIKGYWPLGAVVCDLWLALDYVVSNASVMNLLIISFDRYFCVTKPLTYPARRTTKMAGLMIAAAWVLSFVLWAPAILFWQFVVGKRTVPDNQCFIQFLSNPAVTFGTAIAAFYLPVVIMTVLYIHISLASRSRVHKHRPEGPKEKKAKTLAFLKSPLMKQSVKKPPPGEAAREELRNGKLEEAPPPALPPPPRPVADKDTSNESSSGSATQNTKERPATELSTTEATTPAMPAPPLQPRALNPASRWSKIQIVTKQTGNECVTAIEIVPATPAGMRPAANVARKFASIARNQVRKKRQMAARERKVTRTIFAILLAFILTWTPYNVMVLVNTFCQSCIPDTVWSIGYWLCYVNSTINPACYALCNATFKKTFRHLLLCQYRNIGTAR
Muscarinic acetylcholine receptor M2, sequence (P08172 whole entry): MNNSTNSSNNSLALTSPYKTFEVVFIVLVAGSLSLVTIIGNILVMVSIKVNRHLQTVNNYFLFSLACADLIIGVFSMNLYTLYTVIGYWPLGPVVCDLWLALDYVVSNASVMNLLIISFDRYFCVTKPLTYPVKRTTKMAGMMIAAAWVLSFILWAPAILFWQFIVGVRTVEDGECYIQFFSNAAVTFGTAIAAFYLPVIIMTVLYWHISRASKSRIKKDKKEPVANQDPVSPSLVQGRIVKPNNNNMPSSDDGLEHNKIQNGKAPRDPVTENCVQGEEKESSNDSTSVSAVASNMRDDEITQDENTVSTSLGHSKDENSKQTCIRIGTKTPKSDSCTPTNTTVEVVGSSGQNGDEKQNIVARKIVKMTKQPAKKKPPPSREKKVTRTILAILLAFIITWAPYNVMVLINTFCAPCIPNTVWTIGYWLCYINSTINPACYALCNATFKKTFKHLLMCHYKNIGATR
Beta-1 adrenergic receptor, sequence (P18090 whole entry): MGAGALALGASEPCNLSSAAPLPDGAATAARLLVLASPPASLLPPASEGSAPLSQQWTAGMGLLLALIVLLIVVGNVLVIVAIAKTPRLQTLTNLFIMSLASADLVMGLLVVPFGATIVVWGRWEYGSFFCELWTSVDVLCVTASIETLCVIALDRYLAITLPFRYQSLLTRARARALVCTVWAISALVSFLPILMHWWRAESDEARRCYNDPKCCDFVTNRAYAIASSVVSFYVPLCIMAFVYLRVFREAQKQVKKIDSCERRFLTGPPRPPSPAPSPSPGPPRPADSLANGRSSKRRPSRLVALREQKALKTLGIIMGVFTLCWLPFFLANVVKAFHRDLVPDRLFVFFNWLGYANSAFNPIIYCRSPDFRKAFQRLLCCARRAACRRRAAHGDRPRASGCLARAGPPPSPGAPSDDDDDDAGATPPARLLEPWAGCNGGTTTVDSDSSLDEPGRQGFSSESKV
5-hydroxytryptamine receptor 3A, sequence (P46098 whole entry): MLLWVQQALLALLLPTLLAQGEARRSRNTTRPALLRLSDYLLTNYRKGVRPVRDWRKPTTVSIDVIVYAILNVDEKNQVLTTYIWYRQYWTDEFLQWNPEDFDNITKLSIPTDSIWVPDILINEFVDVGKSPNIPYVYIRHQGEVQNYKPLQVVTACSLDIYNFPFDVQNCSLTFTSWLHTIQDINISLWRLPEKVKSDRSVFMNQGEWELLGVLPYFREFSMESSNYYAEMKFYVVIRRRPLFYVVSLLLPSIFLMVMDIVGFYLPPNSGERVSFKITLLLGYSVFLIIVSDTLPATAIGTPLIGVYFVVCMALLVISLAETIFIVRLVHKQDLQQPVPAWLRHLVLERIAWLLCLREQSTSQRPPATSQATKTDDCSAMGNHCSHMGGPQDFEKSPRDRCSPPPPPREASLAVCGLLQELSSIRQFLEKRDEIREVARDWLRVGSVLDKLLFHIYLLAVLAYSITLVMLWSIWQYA
Sigma non-opioid intracellular receptor 1, sequence (Q9R0C9 whole entry): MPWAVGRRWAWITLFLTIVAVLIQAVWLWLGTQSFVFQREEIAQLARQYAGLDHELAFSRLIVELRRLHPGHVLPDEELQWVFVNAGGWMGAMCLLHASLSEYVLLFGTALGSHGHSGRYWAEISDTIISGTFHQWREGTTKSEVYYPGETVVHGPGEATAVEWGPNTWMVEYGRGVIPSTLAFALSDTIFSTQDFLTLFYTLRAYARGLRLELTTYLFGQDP

NC(=O)c1cccc(-c2cccc(OC(=O)NC3CCCCC3)c2)c1 [URB 597]
> 10 µM: all assays above
